# From US20170298083A1, “NEW IMMUNOSTIMULATORY COMPOUNDS” (Bernhard-Nocht-Institut für Tropenmedizin, priority 2014, published 2017)
# Key:
# Leishmania major = assay: in vitro Leishmania assay: infected bone marrow derived macrophages; conditions: for percentage of L. major infected macrophages / parasite load per macrophage: BMM, 48 h
# human NKT cells = assay: human iNKT cell assay: intracellular cytokine production in whole PBMCs by FACS; type: cell-based; conditions: human PBMC, 15 h, 1 μg/ml αGalCer or 10 μg/ml purified EhLPPG, FIG. 1
# [1] = liver toxicity: serum ALT after intraperitoneal injection; type: in vivo; conditions: C57BL/6 mice, four-time intraperitoneal injection; EhLPPG 1, 10, 25 and 50 μg/ml; αGalCer 0.1, 1 and 10 μg/ml
structure (smiles),measurement,setting,value
"CCCCCCCCCCCCCCCCCCCCCCCCCC(=O)N[C@@H](CO[C@H]1O[C@H](CO)[C@H](O)[C@H](O)[C@H]1O)[C@H](O)[C@H](O)CCCCCCCCCCCCCC [αGalCer, α-galactosylceramide]",percentage of L. major infected macrophages,"Leishmania major; spleen-derived lymphocytes co-incubated, FIG. 5B",significantly reduced
same,parasite load per macrophage,"Leishmania major; with addition of spleen cells, FIG. 5D",a significant reduction
same,percentage of L. major infected macrophages,"Leishmania major; without spleen cells, FIG. 5A",significantly reduced
same,parasite load per macrophage,"Leishmania major; without spleen cells, FIG. 5C",significantly reduced the amount of parasites within the macrophages
same,expression of iNOS,"Leishmania major; preliminary results, data not shown",increase in the expression of iNOS
same,production of tumor necrosis factor (TNF) α and IL-17 in NKT cells,human NKT cells,led to the production of tumor necrosis factor (TNF) α and IL-17
same,CD4+NKT cells positive for IFN-γ and IL-4,human NKT cells; αCD28 co-stimulant,considerable amounts of CD4+NKT cells positive for IFN-γ and IL-4
same,liver ALT enzyme level in serum,[1],significant increase in the ALT levels
